# In patent US20030040479A1, “Rotational intrathecal analgesia method and device” (Omeros Corporation, priority 2001, published 2003):
# What was measured:
# Type in all cases: in vivo
# [1] = test system: male Sprague-Dawley rats; assay: Rat hindpaw withdrawal latency (HWL) to mechanical stimulation, Randall Selitto Test; conditions: for % Changes of HWL to Mechanical Stimulation: 10 minutes after intrathecal injection
# [2] = test system: male Sprague-Dawley rats; assay: Rat hindpaw withdrawal latency (HWL) to thermal stimulation, hot-plate test; conditions: for % Changes of HWL to Thermal Stimulation: 10 minutes after intrathecal injection
# [3] = test system: male Sprague-Dawley rats; assay: Development of tolerance to intrathecal analgesia in rat HWL tests (thermal and mechanical); conditions: intrathecal every 12 hrs
# Method: A polyethylene catheter (Intramedic PE 10) was permanently implanted intrathecally with the inner tip at L3 to L5 in each animal. Rats displaying movement disorders following placement of the catheter were not used in the study. Injection volume was 10 μL of drug solution followed by 10 μL of 0.9% saline to flush the catheter. Intrathecal injections were performed every 12 hrs (morning and night).
# In the morphine only group, 8 μg morphine HCl was injected every 12 hrs until complete tolerance developed and in the nociceptin only group, 10 nmol nociceptin was injected every 12 hrs until complete tolerance developed. These doses were chosen from previous studies that determined an equianalgesic dosing for these two drugs. […]
# Solutions for intrathecal injection were prepared with sterilized saline (0.9%). […] The hindpaw withdrawal latency (HWL) was measured for both thermal and mechanical stimulation. […] A wedge shaped probe with a loading rate of 30 g/second was applied to the dorsal surface of the manually handled hindpaw and the mechanical stimulation required to initiate the struggle response was assessed. […] The HWLs were measured 15 min after the second intrathecal injection on a daily basis. […]
# [4] = day 1, drug alone, intrathecal, text summary of both hindpaws
smiles,measurement,setting,value
"CN1CC[C@]23c4c5ccc(O)c4O[C@H]2[C@@H](O)C=C[C@H]3[C@H]1C5 [Morphine, morphine]",HWL increase using mechanical stimulation,[1]; [4],~55%
same,% Changes of HWL to Mechanical Stimulation,"[1]; day 1, left hindpaw",53.99 ± 2.96%
same,% Changes of HWL to Mechanical Stimulation,"[1]; day 1, right hindpaw",56.04 ± 3.38%
same,% Changes of HWL to Mechanical Stimulation,"[1]; day 2, left hindpaw",47.69 ± 2.54%
same,% Changes of HWL to Mechanical Stimulation,"[1]; day 2, right hindpaw",46.74 ± 2.52%
same,% Changes of HWL to Mechanical Stimulation,"[1]; day 3, left hindpaw",33.85 ± 1.60%
same,% Changes of HWL to Mechanical Stimulation,"[1]; day 3, right hindpaw",33.44 ± 1.03%
same,% Changes of HWL to Mechanical Stimulation,"[1]; day 4, left hindpaw",31.37 ± 2.02%
same,% Changes of HWL to Mechanical Stimulation,"[1]; day 4, right hindpaw",28.84 ± 2.73%
same,% Changes of HWL to Mechanical Stimulation,"[1]; day 5, left hindpaw",15.30 ± 1.39%
same,% Changes of HWL to Mechanical Stimulation,"[1]; day 5, right hindpaw",16.54 ± 1.26%
same,% Changes of HWL to Mechanical Stimulation,"[1]; day 6, left hindpaw",3.26 ± 1.86%
same,% Changes of HWL to Mechanical Stimulation,"[1]; day 6, right hindpaw",2.72 ± 1.94%
same,HWL increase using thermal stimulation,[2]; [4],approximately 67%
same,% Changes of HWL to Thermal Stimulation,"[2]; day 1, left hindpaw",66.26 ± 2.20%
same,% Changes of HWL to Thermal Stimulation,"[2]; day 1, right hindpaw",66.66 ± 1.51%
same,% Changes of HWL to Thermal Stimulation,"[2]; day 2, left hindpaw",61.25 ± 3.05%
same,% Changes of HWL to Thermal Stimulation,"[2]; day 2, right hindpaw",63.11 ± 0.64%
same,% Changes of HWL to Thermal Stimulation,"[2]; day 3, left hindpaw",51.66 ± 1.73%
same,% Changes of HWL to Thermal Stimulation,"[2]; day 3, right hindpaw",48.74 ± 2.40%
same,% Changes of HWL to Thermal Stimulation,"[2]; day 4, left hindpaw",43.63 ± 1.38%
same,% Changes of HWL to Thermal Stimulation,"[2]; day 4, right hindpaw",42.45 ± 1.70%
same,% Changes of HWL to Thermal Stimulation,"[2]; day 5, left hindpaw",23.85 ± 1.03%
same,% Changes of HWL to Thermal Stimulation,"[2]; day 5, right hindpaw",25.07 ± 2.07%
same,% Changes of HWL to Thermal Stimulation,"[2]; day 6, left hindpaw",−1.30 ± 2.36%
same,% Changes of HWL to Thermal Stimulation,"[2]; day 6, right hindpaw",0.51 ± 1.61%
same,day by which complete (total) tolerance exists,[3],6 days
